For data set [1], the system named is human blood serum. Description: Composition of amino acids in human blood serum. The class given is biochemical. Particulars: Yoshixol 4 μl. How it is done:
Changes in composition of amino acids were analyzed by use of 1 ml of human blood serum, 1 ml of human fibrinogen (concentration of 160 mg/dl), 1 ml of human thrombin before and after treatment with Yoshixol (4 μl). The total amino acids in the human blood serum which was treated with Yoshixol decreased by 41%. And, ratio of each composition was altered after the treatment so that as an example the concentration of phosphoserine increased about 20 times which level was from 7.2 picomole to 164.8 picomole.

The subject of data set [2] is human defibrinized serum, bovine albumin, human fibrinogen, myoglobin, anti-A blood type serum and anti-B blood type serum. The data set is described as follows: Primary structure of proteins, electrophoretic analysis of non-SDS wide page. Particulars: 1 ml protein solutions, Yoshixol 4 μl, heated denaturation. It is filed as biochemical. The protocol:
Changes in molecular weight composition of the following macromolecular proteins (1 mole solution) before and after treatment with Yoshixol (4 μl) were investigated after heated denaturation by electrophoretic analysis of non-SDS wide page. The used macromolecules proteins solutions of 1 ml are human defibrinized serum, bovine albumin, human fibrinogen, myoglobin, anti-A blood type serum and anti-B blood type serum (Green Cross Co.). Even after treatment with Yoshixol, distribution of molecular weights on electrophoretic analysis was identical to that of the macromolecules proteins which is not treated (referred FIG. 7).

For data set [3], the system named is pseudomonas aeruginosa. Description: Histological observation of pseudomonas aeruginosa after treatment. The class given is cell-based. Particulars: after treatment with Yoshixol.
Data set [4] relates to mouse hepatoma cells. The data set is described as follows: Anti-cancer effect, cultured mouse hepatoma cells. It is filed as cell-based. Particulars: compared with keratinocytes treated with Yoshixol.
Data set [5] deals with synthesized dimers SEQ ID NO: 1 and SEQ ID NO: 2. The data set is described as follows: Molecular weight of new synthesized dimers with seven base pair, electrophoresis. The class given is biochemical. Particulars: 2 μl dimer solution with 2 μl of Yoshixol, 20% gel electrophoresis. The protocol:
DNA or RNA synthesis device (392-25 type, Perkin-Elmer Co.) was used and 7 base alignment (CTTCGGA) and (CTTCGGG) new synthesis dimer (SEQ ID NO: 1) (5′>CTTCGGACTTCGGA<3′) and (SEQ ID NO: 2) (5′>CTTCGGGCTTCGGG<3′) were synthesized. Then, an effect of Yoshixol on a change in molecular weight of the dimer was investigated. This pellet was dissolved on 50 μl of tris EDTA, and OD260 was measurement by 100 times attenuation so that concentration was turned into equality (5 ng/μl) by tris EDTA and distilled water. And, 4 μl of an adjusted synthesis dimer was labeled at 5′-terminal end of the dimer with 4 μl of ATP which was labeled by P32. In addition, after processing the dimer with 1 μl of polynucleokinase (TaKaRa, Tokyo) for 30 minutes by 37° C., the solution was heated at 70° C. for 5 minutes. Afterward, 65 μl of tris EDTA, 1 μl of glycogen and 190 μl of chilled ethanol were added and were mixed. And, it was centrifuged over 10 minute by 16,000 cpm. After taking the supernatant out, the pellet was made dry. Again, it was dissolved by 50 μl of tris EDTA and, 1 μl of the solution with radioactivity was mixed with urea (15 g), acrylamide (5.7 g), bisacrylamide (0.3 g), tris boric acid EDTA (3 ml), 10% ammoniumpersulfate (0.1 ml) and N, N, N, N-tetramethyldiamine (15 μl) to distilled water, so that the volume was made to 30 ml in total. […]

Data set [6] concerns primer (SEQ ID NO: 2) and snake DNA. The data set is described as follows: PCR with primer or DNA template treated with Yoshixol. The class given is biochemical. How it is done: Effect of Yoshixol on PCR was investigated by DNA template which was extracted from snake (blue-green snake, captured at Matsumoto city, Nagano). The new synthesized dimer of (SEQ ID NO: 2) (5′>CTTCGGGCTTCGGG<3′) with 7 base-pair alignment (CTTCGGG) above-mentioned was used as a primer. PCR reaction was done by use of DNA thermal cycler (PJ-2000) made in PERKIN ELMER CETUS company. The following six combinations were prepared for the test samples. Those are two kinds of samples which consist of 5 μl of primer (100 pico mole/μl) with 5 μl of Yoshixol (P+) and without Yoshixol (P−). In addition, two kinds of samples which consist of 5 μl. of snake DNA (500 ng/μl) with 5 μl of Yoshixol (D+) and without Yoshixol (D−). And, additional two kinds of samples which consist of 1 μl of polymerase enzymes (Recombinant Taq DNA Polymerase, No. R001A, TaKaRa Shuzo Co., Otsu city: 5 unit/pd) with 1 μl of Yoshixol (Pm+) and without Yoshixol (Pm−). After each sample was placed for 10 minutes at room temperature, each sample was diluted in distilled water. And, it is adjusted in a primer solution of 10 picomole/μl, DNA solution of 50 ng/μl and a polymerase enzymes solution of 0.5 unit/μl. Then, the following combinations were prepared. […] In each combination, amount of cDNA synthesis was amplified by a PCR method and was measured. […]

The nature of data set [7]: Acute and chronic toxicity, intravenous. The class given is in vivo, rabbit and dog. How it is done: In order to investigate a toxicity in vivo, the solution which was mixed 50 μl/Kg of Yoshixol with 1 ml of 20% glucose solution was administered intravenously in unanesthetized animals (rabbit and dog). […] Even though intravenous administration alone was done, it may be confirmed that it is safety.

[8] abbreviates: rabbit and dog, 50 μl/Kg intravenously.

`C=C1CC(C)(C)C=CC1=O` [Yoshixol, 4,4-dimethyl-6-methylene-2-cyclohexen-1-one]: the “decrease of total amino acids in human blood serum” value in data set [1] (1 ml human blood serum) is recorded as 41%. The “increase of concentration of phosphoserine” value in data set [1] (human blood serum) was “about 20 times”. In data set [1] (human blood serum, before 7.2 picomole), the “concentration of phosphoserine after treatment” value was 164.8 picomole. The “distribution of molecular weights on electrophoretic analysis versus not treated” value in data set [2] is on record as “identical”. Also, the “histological observation of the bacilli” value in data set [3] is “swelled as likely as a balloon and were ruptured”. In addition, in data set [4], the “structure between cells and cellular aspect” value is given as “observations similar to the above were found”. In addition, in data set [5], the “change in molecular weight of the synthesized dimers versus without treatment” value is reported as “did not differ”. Further, the “PCR bounds versus P−, D−, Pm−, group P+, D−, Pm−” value in data set [6] (only primer processed by Yoshixol (5 μl with 5 μl)) was “did not differ”. Also, in data set [6] (only snake DNA processed by Yoshixol (5 μl with 5 μl)), the “PCR bounds versus P−, D−, Pm−, group P−, D+, Pm−” value was “did not differ”. In addition, in data set [7] (setting [8]), the “duration of transitional signs after the administration” value lay within 1 to 2 min and the platelets entry was “A change in platelets was not observed”. In data set [7] (rabbit and dog, 50 μl/Kg intravenously, after 1 month), the “pathological findings in the vital organs, macroscopically and microscopically” value was “any pathological findings were not observed”. Moreover, the abnormal behavior result in data set [7] (rabbit and dog, 50 μl/Kg intravenously, observation period of 2 hours) was “an abnormal behavior was not found”. Besides, the abnormal behavior entry in data set [7] (rabbit and dog, 50 μl/Kg intravenously, observed over 1 month) is reported as “any abnormal behavior did not found”. In addition, the white blood cells result in data set [7] (rabbit and dog, 50 μl/Kg intravenously, recovery to normal level at 1 week) is “increased 3 days after administration”. The “examination of blood, anemia” value in data set [7] (rabbit and dog, 50 μl/Kg intravenously, recovery to the normal after 1 week) was “hyperchromic anemia at the maximum level occurred 3 days after administration”. The “respiration rate, blood pressure, heart rate and movements of an extremity after injection” value in data set [7] (unanesthetized rabbit and dog, 50 μl/Kg intravenously in 1 ml 20% glucose solution) was “transitional increase in respiration rate, increase in blood pressure and heart rate and active movements of an extremity (not convulsion)”.

The values are drawn from patent publication US6710090B2, “Inhibitory or blocking agents of molecular generating and/or inducing functions” (priority 1994, dated 2004).
